Patent US20050118226A1, “Methods for treating ACAT-related diseases” (priority 2003, published 2005)
“Also recorded” adds a separate entry of the source.

Tests used:
ACAT = experiment: Cholesterol determinations in non-transgenic mice given 21 day-release CP-113,818 pellets; type: in vivo; conditions: 21 days
Description: hAPP transgenic mice overexpress human APP751 with the London (V717I) and Swedish (K670M/N671L) mutations under the regulatory control of the neuron specific murine (m)Thy-1 promoter (mThy-1-hAPP751; heterozygous with respect to the transgene, on a C57BL/6 F3 background) (Rockenstein et al., 2001). The hAPP colony was sustained by crossing transgenic APP751 with C57BL/6 (Harlan Winkelman, Germany). Corresponding littermates were used for control studies. All mice were housed according to standard animal care protocols, fed ad libitum with standard chow diet, and maintained in a pathogen-free environment in single ventilated cages at JSW Research. The transgenic status of each animal was confirmed by real time PCR of tail snips using specific primers and the appropriate hybridization probe. A modified Irvine test was regularly performed prior to the experiment to assess the neurological status of the animals; those showing disturbances were excluded from the experiments. Mice were then randomly assigned to different treatment groups and individually coded. Investigators performing behavioral testing, biochemical analyzes and histomorphological evaluations of the brains were blinded in terms of group allocation of the mice. CP-113,818, a potent inhibitor of both ACAT1 and ACAT2 (Chang et al., 2000), was graciously provided by Dr. James Harwood, Pfizer (Groton, Conn.). The drug was compounded in release pellets for continuous dosing by Innovative Research of America (Sarasota, Fla.). Only the test compound, but not carrier biopolymers and substances in the pellets, are released into the bloodstream. Pellets were generated to provide either 21 day or 60 days of continuous drug delivery. For implantation of pellets, animals were anesthized with isofluorance. Then, sterile pellets containing either CP-113,818 or placebo were implanted subcutaneously along the anterolateral aspect of the left shoulder with a special precision trocar in accordance with the suppliers instructions.
Tissues were homogenized in the presence of trypsin (10 mg/ml) in a Dounce homogenizer on ice. Protein concentration of the homogenate was determined using the BCA protein assay kit (Pierce). The tissue homogenate was extracted in chloroform:methanol (2:1, v/v) overnight. Before drying the chloroform phase, polyoxyethylene-9-lauryl ether (Sigma; 5 μl/ml of extract) was added. Dried lipid pellets were dissolved in water and total amount of cholesterol was determined with an enzymatic assay (Sigma; cat. no. 402-20). As control, free cholesterol was determined with a different enzymatic assay (R-Biopharm GmbH, Darmstadt, Germany; cat. no. E0139050). The amount of cholesteryl-esters was calculated by subtracting free from total cholesterol. Finally, the values were normalized to protein concentration of the tissue homogenate and expressed in mg of cholesterol per g of protein.
CP-113,818 is a fatty-acid anilide derivative designed to mimic the acyl-CoA substrate of ACAT and a potent ACAT inhibitor in vitro, cell culture, and animals (Chang et al., 2000; Marzetta et al., 1994; Puglielli et al., 2001). In order to determine the in vivo efficacy of CP-113,818 in reducing mouse brain cholesteryl-ester levels, we initially treated non-transgenic animals with the ACAT inhibitor. Most ACAT inhibitors are poorly absorbed when administered orally, and are quickly turned over in the blood or tissues (Marzetta et al., 1994). […]

[1] = biological target: T1, purified recombinant human BACE1 (Homo sapiens, UniProt P56817); experiment: In vitro fluorometric BACE1 activity assay; type: biochemical; conditions: increasing amounts of compound, 2 hours
T1 construct: purchased R&D systems
Procedure: A fluorometric β-secretase activity kit was used for detecting BACE1 activity in vitro. Reaction was done according to the manufacturer's instructions with slight modifications. Briefly, 1 μg of purified recombinant human BACE1 (R&D systems) was resuspended in 10 μl of 1× cell extraction buffer (R&D systems) and incubated with EDANS/DABCYL-[…] substrate peptide in the absence or presence of indicated account of CP-113,818 for 2 hours. Released EDANS fluorescence was measured by a fluorescent plate reader (Analyst AD, LJL Biosystems). As a negative control, a specific β-secretase inhibitor, GL-189 (Calbiochem) was added to one of the samples with the indicated concentration.

Aβ40 = Aβ40 (Homo sapiens, UniProt P05067); experiment: Turbidity assay of Aβ40 aggregation; conditions: 10 μM, absorbance at 400 nm over four days
Procedure: Aβ40 aggregation was monitored according to the method of Jarrett et al. (Jarrett et al., 1993). Briefly, Aβ40 (100 μg/ml) was incubated at 37° C. in TBS in a 384-well plate (60 μl/well). Well turbidity was monitored for four days by following absorbance at 400 nm. Aβ40 aggregation was promoted by the addition of “aged” (pre-incubated for 2 weeks at room temperature) Aβ42 (Aβ42/Aβ40=1/10) (Jarrett et al., 1993) or Zn/histine buffer (50 μM Zn++in 350 μM histine) (Bush et al., 1994). Absorbance of test wells was blanked on signal from samples without Aβ40. For some experiments, incubation buffers included CP-113,818 (10 μM).

[2] = 7.1 mg/kg/day, subcutaneous pellet, vs placebo

Sequence of Aβ40 (P05067 672-711 limits assumed): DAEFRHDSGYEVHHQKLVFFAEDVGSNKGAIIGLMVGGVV
T1 sequence (P56817 46-501): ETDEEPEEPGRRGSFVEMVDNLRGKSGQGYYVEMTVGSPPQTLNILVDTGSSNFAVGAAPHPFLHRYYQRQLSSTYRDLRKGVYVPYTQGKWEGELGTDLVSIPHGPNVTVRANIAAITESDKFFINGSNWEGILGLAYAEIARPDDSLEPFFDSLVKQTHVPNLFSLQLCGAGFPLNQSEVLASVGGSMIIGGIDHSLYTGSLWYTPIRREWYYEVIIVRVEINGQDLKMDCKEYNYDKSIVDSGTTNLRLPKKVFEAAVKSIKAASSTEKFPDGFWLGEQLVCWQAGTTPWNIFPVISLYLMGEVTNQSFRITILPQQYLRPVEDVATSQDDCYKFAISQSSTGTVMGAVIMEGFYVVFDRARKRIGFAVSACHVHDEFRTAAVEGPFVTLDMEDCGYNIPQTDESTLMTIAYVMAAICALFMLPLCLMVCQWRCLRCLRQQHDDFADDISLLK

## CCCCCCCC[C@H](SCCCCCC)C(=O)Nc1c(SC)cc(C)nc1SC [CP-113,818]
ACAT; 7.1 mg/kg per day
  effect on food consumption and body weight: absence of any evident effect
ACAT; [2]
  reduction of cholesteryl-ester levels in the brain: 86%
  reduction of total cholesterol in the serum: 29%
ACAT; 0.2-7.1 mg/kg/day, dose-dependent
  decrease of free or membrane cholesterol in the liver: up to 37%
ACAT
  effect on free cholesterol levels in the brain: no effect
[1]
  effect on BACE1 activity in vitro: unaffected; also recorded: no direct effect
Aβ40
  effect on metal- or Aβ42-mediated aggregation of Aβ40 in vitro: failed to directly inhibit; also recorded: does not directly modulate
